Data on two molecules can be found in patent US12668584B2, “Heterocyclic compounds as kinase inhibitors for therapeutic uses” (National Health Research Institutes, priority 2019, dated 2026).

Format in all cases: biochemical
One test deals with Aurora B (Homo sapiens, UniProt Q96GD4). Put plainly: HotSpot kinase profiling, Aurora B. The following applies: HotSpot assay, 10 μM ATP; IC50 of kinase divided by that of CSF1R.
The target of test [1] is tyrosine-protein kinase Kit (c-Kit) (Homo sapiens, UniProt P10721). The test is described as follows: HotSpot kinase profiling, c-Kit. The following applies: HotSpot assay, 10 μM ATP; IC50 of kinase divided by that of CSF1R. The method, then:
(§1) A study was conducted to determine kinase selectivity of compounds 27 and 67. More specifically, each compound was tested for inhibitory activity of CSF1R kinase, as compared to that of seven other kinases, i.e., Aurora A, Aurora B, tyrosine-protein kinase Kit (c-Kit), fms-like tyrosine kinase 3 (FLT3), platelet-derived growth factor receptor (PDGFR) A, PDGFR B, and discoidin domain receptor tyrosine kinase 1 (DDR1).
(§2) In vitro profiling of the kinase panel was performed at Reaction Biology Corporation (www.reactionbiology.com, Malvern, PA) using the “HotSpot” assay platform. Briefly, specific kinase/substrate pairs along with required cofactors were prepared in a reaction buffer containing 20 mM Hepes pH 7.5, 10 mM MgCl2, 1 mM EGTA, 0.02% Brij35, 0.02 mg/ml BSA, 0.1 mM NA3VO4, 2 mM DTT, and 1% DMSO. Compound 27 or 67 was added. 20 minutes later, a mixture of ATP (Sigma, St. Louis MO) and ^33P ATP (Perkin Elmer, Waltham MA) was added to the resulting reaction solution to give a final concentration of 10 μM. The reaction was carried out at room temperature for 120 min., followed by spotting the reaction solution onto P81 ion exchange filter paper (Whatman Inc., Piscataway, NJ). Unbound phosphate was removed by extensive washing filters in 0.75% phosphoric acid. […] Selectivity, expressed as an IC50 ratio, was determined by dividing the IC50 value of a kinase, e.g., Aurora A, by that of CSF1R.

A further test addresses CSF1R (Homo sapiens, UniProt P07333). The test is described as follows: HotSpot kinase profiling, CSF1R. The following applies: HotSpot assay, 10 μM ATP. Here is the method: as §1, §2
Test [2] has as its target T1, CSF1R kinase (recombinant N-terminal GST-CSF1R, residues L534-C972) (Homo sapiens, UniProt P07333).
T1 construct: Recombinant N-terminal GST-CSF1R (CSF1R residues L534-C972) containing the CSFIR kinase domain; made in house; host or cells: Sf9 insect cells
T1 sequence (P07333 534-972): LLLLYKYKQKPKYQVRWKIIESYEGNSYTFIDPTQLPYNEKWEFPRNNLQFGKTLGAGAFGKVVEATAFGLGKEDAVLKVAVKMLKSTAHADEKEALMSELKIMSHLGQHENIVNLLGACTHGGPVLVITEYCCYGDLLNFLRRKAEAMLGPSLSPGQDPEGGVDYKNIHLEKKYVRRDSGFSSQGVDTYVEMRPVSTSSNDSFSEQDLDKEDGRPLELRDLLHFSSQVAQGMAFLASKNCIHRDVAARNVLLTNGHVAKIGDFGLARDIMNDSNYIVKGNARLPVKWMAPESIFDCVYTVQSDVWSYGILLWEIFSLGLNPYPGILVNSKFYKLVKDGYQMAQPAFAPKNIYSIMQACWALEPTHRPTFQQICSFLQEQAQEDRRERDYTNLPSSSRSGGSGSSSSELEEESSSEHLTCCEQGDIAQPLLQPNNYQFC
The test is described as follows: CSF1R Kinase-Glo assay. Conditions: 40 μM ATP, 30° C. 180 min, read-out: Enzymatic Assay CSF1R enzyme IC50. Summed up:
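Sf9-expressed, purified GST-CSF1R kinase domain (600 ng) was incubated with compound for 180 min at 30° C. with 40 μM ATP and 20 μM poly(Glu,Tyr) 4:1 at pH 7.4 (Mn2+/Mg2+). Remaining ATP was read by Kinase-Glo Plus luminescence. IC50 was fitted from percentage inhibition versus no-compound controls across a concentration range.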
Background: In Kinase-Glo more light means more ATP remaining.

The target in test [3] is discoidin domain receptor tyrosine kinase 1 (DDR1) (Homo sapiens, UniProt Q08345). The test is described as follows: HotSpot kinase profiling, DDR1. Conditions: HotSpot assay, 10 μM ATP; IC50 of kinase divided by that of CSF1R. Here is the method:
as §1, §2

In a further test the target is T2, Aurora A (Homo sapiens, UniProt O14965).
T2 sequence (O14965 1-403): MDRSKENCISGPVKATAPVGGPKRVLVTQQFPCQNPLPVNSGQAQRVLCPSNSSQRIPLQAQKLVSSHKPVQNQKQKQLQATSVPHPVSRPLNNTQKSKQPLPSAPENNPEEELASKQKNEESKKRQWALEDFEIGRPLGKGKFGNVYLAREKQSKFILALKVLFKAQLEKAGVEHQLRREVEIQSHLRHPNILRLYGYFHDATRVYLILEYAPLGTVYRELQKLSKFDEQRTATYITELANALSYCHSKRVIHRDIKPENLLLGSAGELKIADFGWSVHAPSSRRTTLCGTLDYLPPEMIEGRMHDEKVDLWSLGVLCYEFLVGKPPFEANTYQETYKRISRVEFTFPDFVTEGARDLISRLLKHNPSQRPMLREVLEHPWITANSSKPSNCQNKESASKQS
The test is described as follows: HotSpot kinase profiling, Aurora A. Conditions: HotSpot assay, 10 μM ATP; IC50 of kinase divided by that of CSF1R. The method, then:
as §1, §2

Sequence of Aurora B (Q96GD4 whole entry): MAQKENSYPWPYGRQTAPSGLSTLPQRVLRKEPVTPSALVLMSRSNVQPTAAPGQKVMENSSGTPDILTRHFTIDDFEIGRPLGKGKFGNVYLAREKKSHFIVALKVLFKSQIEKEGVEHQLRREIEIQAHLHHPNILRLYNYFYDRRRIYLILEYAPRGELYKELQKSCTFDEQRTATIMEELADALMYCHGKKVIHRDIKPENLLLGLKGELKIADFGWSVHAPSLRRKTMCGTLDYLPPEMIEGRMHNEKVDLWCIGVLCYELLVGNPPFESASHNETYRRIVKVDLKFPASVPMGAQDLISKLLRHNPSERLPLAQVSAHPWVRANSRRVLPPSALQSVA
Sequence of discoidin domain receptor tyrosine kinase 1 (DDR1) (Q08345 19-913): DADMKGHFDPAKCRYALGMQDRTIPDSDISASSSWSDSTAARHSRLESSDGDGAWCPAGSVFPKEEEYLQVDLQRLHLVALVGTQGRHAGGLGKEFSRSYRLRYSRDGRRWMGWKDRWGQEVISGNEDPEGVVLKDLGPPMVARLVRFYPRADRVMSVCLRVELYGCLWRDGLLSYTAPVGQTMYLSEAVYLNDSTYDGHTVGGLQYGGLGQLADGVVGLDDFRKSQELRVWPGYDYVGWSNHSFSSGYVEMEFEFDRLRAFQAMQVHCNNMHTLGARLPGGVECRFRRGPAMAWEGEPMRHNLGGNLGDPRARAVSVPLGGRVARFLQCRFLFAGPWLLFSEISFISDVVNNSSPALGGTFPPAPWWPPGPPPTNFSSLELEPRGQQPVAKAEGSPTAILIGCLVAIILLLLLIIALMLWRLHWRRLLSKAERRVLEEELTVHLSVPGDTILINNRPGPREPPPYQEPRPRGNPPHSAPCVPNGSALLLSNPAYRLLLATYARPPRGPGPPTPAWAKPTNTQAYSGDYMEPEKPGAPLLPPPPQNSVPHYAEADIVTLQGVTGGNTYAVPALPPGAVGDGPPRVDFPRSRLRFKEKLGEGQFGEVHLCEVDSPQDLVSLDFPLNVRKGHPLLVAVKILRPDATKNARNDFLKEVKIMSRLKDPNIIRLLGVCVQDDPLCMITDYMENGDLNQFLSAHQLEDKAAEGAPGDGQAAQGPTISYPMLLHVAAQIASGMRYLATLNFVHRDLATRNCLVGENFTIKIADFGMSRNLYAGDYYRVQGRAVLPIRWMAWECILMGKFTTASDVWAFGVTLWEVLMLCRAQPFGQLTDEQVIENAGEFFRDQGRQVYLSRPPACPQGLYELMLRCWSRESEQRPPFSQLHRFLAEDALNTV
Sequence of CSF1R (P07333 20-972): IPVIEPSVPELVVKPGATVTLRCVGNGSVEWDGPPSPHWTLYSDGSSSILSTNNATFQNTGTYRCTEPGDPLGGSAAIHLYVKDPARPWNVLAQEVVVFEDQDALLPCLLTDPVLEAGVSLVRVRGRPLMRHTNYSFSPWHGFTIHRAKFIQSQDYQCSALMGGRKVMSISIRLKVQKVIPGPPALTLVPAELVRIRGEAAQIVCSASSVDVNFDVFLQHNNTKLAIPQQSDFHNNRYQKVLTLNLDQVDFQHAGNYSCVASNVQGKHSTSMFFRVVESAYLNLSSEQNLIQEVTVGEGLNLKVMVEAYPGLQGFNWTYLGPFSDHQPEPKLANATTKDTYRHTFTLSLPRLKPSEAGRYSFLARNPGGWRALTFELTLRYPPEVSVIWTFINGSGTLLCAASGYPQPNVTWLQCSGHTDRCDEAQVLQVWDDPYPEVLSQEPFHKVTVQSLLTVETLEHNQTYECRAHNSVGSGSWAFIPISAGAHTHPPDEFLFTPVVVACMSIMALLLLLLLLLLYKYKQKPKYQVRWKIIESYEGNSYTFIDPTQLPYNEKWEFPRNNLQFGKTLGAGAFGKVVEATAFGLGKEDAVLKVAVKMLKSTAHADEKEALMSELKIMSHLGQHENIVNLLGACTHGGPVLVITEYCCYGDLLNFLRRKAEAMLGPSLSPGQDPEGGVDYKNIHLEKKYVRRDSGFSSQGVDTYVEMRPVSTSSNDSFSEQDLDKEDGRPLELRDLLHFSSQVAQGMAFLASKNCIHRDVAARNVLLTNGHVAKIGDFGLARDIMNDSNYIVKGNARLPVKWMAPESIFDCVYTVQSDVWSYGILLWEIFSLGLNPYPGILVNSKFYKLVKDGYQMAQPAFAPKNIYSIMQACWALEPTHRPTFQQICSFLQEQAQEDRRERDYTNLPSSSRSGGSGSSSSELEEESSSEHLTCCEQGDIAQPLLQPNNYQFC
Sequence of tyrosine-protein kinase Kit (c-Kit) (P10721 26-976): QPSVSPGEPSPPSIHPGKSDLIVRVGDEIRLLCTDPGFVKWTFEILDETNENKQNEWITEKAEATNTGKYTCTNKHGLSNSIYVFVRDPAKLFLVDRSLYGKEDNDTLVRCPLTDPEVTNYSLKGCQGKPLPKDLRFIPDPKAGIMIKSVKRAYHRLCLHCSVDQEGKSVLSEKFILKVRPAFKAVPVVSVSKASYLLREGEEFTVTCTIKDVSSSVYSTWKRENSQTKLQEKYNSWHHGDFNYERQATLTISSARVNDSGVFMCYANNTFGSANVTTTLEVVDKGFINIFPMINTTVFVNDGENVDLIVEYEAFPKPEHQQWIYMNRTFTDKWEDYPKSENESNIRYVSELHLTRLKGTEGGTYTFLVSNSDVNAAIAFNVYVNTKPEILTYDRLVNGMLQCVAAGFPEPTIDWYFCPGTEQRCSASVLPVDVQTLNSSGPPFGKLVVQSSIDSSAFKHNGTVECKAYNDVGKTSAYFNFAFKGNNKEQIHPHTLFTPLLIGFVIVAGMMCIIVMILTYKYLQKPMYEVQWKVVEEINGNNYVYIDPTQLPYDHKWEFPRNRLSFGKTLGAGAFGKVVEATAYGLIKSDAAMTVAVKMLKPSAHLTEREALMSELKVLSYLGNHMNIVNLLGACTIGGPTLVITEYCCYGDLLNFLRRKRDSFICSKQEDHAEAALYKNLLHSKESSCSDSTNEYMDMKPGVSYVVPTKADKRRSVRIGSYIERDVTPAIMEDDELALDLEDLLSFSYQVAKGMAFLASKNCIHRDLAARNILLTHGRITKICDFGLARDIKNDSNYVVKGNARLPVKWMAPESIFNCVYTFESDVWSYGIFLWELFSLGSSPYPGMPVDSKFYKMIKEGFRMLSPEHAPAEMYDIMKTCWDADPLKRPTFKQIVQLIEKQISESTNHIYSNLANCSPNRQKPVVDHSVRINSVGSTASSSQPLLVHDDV
Method for Aurora B: In vitro profiling of the kinase panel was performed at Reaction Biology Corporation (www.reactionbiology.com, Malvern, PA) using the “HotSpot” assay platform. Briefly, specific kinase/substrate pairs along with required cofactors were prepared in a reaction buffer containing 20 mM Hepes pH 7.5, 10 mM MgCl2, 1 mM EGTA, 0.02% Brij35, 0.02 mg/ml BSA, 0.1 mM NA3VO4, 2 mM DTT, and 1% DMSO. […] 20 minutes later, a mixture of ATP (Sigma, St. Louis MO) and ^33P ATP (Perkin Elmer, Waltham MA) was added to the resulting reaction solution to give a final concentration of 10 μM. The reaction was carried out at room temperature for 120 min., followed by spotting the reaction solution onto P81 ion exchange filter paper (Whatman Inc., Piscataway, NJ). Unbound phosphate was removed by extensive washing filters in 0.75% phosphoric acid. […] Selectivity, expressed as an IC50 ratio, was determined by dividing the IC50 value of a kinase, e.g., Aurora A, by that of CSF1R.

As to `CN(C)c1ccc2c(Oc3ccc(NC(=O)NCc4ccc(C(F)(F)F)nc4)cc3)ncnc2c1` [Compound 27, 1-(4-((7-(dimethylamino)quinazolin-4-yl)oxy)phenyl)-3-((6-(trifluoromethyl)pyridin-3-yl)methyl)urea], the “IC50 ratio Aurora B / CSF1R” value on Aurora B was “+++ (+++: 1000 > IC50 ratio > 100)”. Further, the “IC50 ratio c-Kit / CSF1R” value in test [1] was “++ (++: 100 > IC50 ratio > 10)”. Also, the IC50 is 0.534 nM at CSF1R and < 20 nM in test [2]. Also, the “IC50 ratio DDR1 / CSF1R” value in test [3] is “+++ (+++: 1000 > IC50 ratio > 100)”. In addition, at Aurora A, the “IC50 ratio Aurora A / CSF1R” value is on record as “++++ (++++: IC50 ratio > 1000)”.
As for `CN(C)c1ccc2c(Oc3ccc4c(ccn4C(=O)NCc4ccc(C(F)(F)F)nc4)c3)ncnc2c1` [Compound 67, 5-((7-(dimethylamino)quinazolin-4-yl)oxy)-N-((6-(trifluoromethyl)pyridin-3-yl)methyl)-1H-indole-1-carboxamide], the “IC50 ratio Aurora B / CSF1R” value on Aurora B is listed as “+++ (+++: 1000 > IC50 ratio > 100)”. For the same molecule, the “IC50 ratio c-Kit / CSF1R” value in test [1] was “+++ (+++: 1000 > IC50 ratio > 100)”. Also, the 50% inhibitory concentration (IC50) at CSF1R is 5.69 nM; in test [2], 20 to 100 nM. Besides, the “IC50 ratio DDR1 / CSF1R” value in test [3] is “+ (+: 10 > IC50 ratio > 1)”. In addition, on Aurora A, the “IC50 ratio Aurora A / CSF1R” value is on record as “+++ (+++: 1000 > IC50 ratio > 100)”.

For orientation: IC50 means the concentration at which inhibition is half-maximal.
